# Reference: the supplement of paper PMC4862054
# Values joined by “and” are separate entries in the source; they are usually repeats but may differ in a detail not shown here. Equal entries are not always repeated.
# Tested on: BT-474
# Test: normalised viability (% of control), CellTiter-Blue; higher = more viable cells (about 100 = DMSO control)
# Conditions: 10 nM; incubation time: 72 h
# Description: (§1)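 DSRT, CellTiter-Blue viability, 72 h incubation. Signal is normalised to DMSO and benzethonium chloride controls. Value is the normalised response at dose 3.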
row,SMILES,normalised viability [%]
1,CCNC(=O)c1noc(-c2cc(C(C)C)c(O)cc2O)c1-c1ccc(CN2CCOCC2)cc1 [NVP-AUY922],86.1

# Same assay, conditions: 100 nM; incubation time: 72 h
row,SMILES,normalised viability
1,C=CCn1c(=O)c2cnc(Nc3ccc(N4CCN(C)CC4)cc3)nc2n1-c1cccc(C(C)(C)O)n1 [MK1775],94.6%
2,CN(Cc1cnc2nc(N)nc(N)c2n1)c1ccc(C(=O)N[C@@H](CCC(=O)O)C(=O)O)cc1 [Methotrexate],124%
3,COc1c2occc2cc2ccc(=O)oc12 [Methoxsalen],115%
4,CO[C@@H]1[C@H](N(C)C(=O)c2ccccc2)C[C@H]2O[C@]1(C)n1c3ccccc3c3c4c(c5c6ccccc6n2c5c31)C(=O)NC4 [Midostaurin],114%
5,CO[C@@]12[C@H](COC(N)=O)C3=C(C(=O)C(C)=C(N)C3=O)N1C[C@@H]1N[C@@H]12 [Mitomycin C],127%
6,CC1(C)CCC(c2ccc(Cl)cc2)=C(CN2CCN(c3ccc(C(=O)NS(=O)(=O)c4ccc(N[C@H](CCN5CCOCC5)CSc5ccccc5)c(S(=O)(=O)C(F)(F)F)c4)cc3)CC2)C1 [Navitoclax],97.3%
7,Cc1cn(-c2cc(NC(=O)c3ccc(C)c(Nc4nccc(-c5cccnc5)n4)c3)cc(C(F)(F)F)c2)cn1 [Nilotinib],104% and 102%
8,C=CCN(/C=C1/C(=O)O[C@H](COC)[C@@]2(C)C1=C(O)C(=O)C1=C2[C@H](OC(C)=O)C[C@]2(C)C(=O)CC[C@@H]12)CC=C [PX-866],118%
9,CC[C@H](CO)Nc1nc(NCc2ccccc2)c2ncn(C(C)C)c2n1 [Roscovitine],94.9%
10,O=C(CCCCCCC(=O)Nc1ccccc1)NO [Vorinostat],87.5% and 93.6%

# Tested on: HCC1143
# Test: as above
# Conditions: 10 nM; incubation time: 72 h
# Description: as §1
row,SMILES,normalised viability [%]
1,CCNC(=O)c1noc(-c2cc(C(C)C)c(O)cc2O)c1-c1ccc(CN2CCOCC2)cc1 [NVP-AUY922],100

# Same assay, conditions: 100 nM; incubation time: 72 h
row,SMILES,normalised viability
1,C=CCn1c(=O)c2cnc(Nc3ccc(N4CCN(C)CC4)cc3)nc2n1-c1cccc(C(C)(C)O)n1 [MK1775],94.8%
2,CN(Cc1cnc2nc(N)nc(N)c2n1)c1ccc(C(=O)N[C@@H](CCC(=O)O)C(=O)O)cc1 [Methotrexate],69.3%
3,COc1c2occc2cc2ccc(=O)oc12 [Methoxsalen],106%
4,CO[C@@H]1[C@H](N(C)C(=O)c2ccccc2)C[C@H]2O[C@]1(C)n1c3ccccc3c3c4c(c5c6ccccc6n2c5c31)C(=O)NC4 [Midostaurin],134%
5,CO[C@@]12[C@H](COC(N)=O)C3=C(C(=O)C(C)=C(N)C3=O)N1C[C@@H]1N[C@@H]12 [Mitomycin C],83.7%
6,CC1(C)CCC(c2ccc(Cl)cc2)=C(CN2CCN(c3ccc(C(=O)NS(=O)(=O)c4ccc(N[C@H](CCN5CCOCC5)CSc5ccccc5)c(S(=O)(=O)C(F)(F)F)c4)cc3)CC2)C1 [Navitoclax],75.3%
7,Cc1cn(-c2cc(NC(=O)c3ccc(C)c(Nc4nccc(-c5cccnc5)n4)c3)cc(C(F)(F)F)c2)cn1 [Nilotinib],94.3% and 91.8%
8,C=CCN(/C=C1/C(=O)O[C@H](COC)[C@@]2(C)C1=C(O)C(=O)C1=C2[C@H](OC(C)=O)C[C@]2(C)C(=O)CC[C@@H]12)CC=C [PX-866],99.2%
9,CC[C@H](CO)Nc1nc(NCc2ccccc2)c2ncn(C(C)C)c2n1 [Roscovitine],83.4%
10,O=C(CCCCCCC(=O)Nc1ccccc1)NO [Vorinostat],94.1% and 114%

# Tested on: CAL-85-1
# Test: as above
# Conditions: 1 nM; incubation time: 72 h
# Description: as §1
row,SMILES,normalised viability [%]
1,CCNC(=O)c1noc(-c2cc(C(C)C)c(O)cc2O)c1-c1ccc(CN2CCOCC2)cc1 [NVP-AUY922],96

# Same assay, conditions: 10 nM; incubation time: 72 h
row,SMILES,normalised viability
1,C=CCn1c(=O)c2cnc(Nc3ccc(N4CCN(C)CC4)cc3)nc2n1-c1cccc(C(C)(C)O)n1 [MK1775],81.4%
2,CN(Cc1cnc2nc(N)nc(N)c2n1)c1ccc(C(=O)N[C@@H](CCC(=O)O)C(=O)O)cc1 [Methotrexate],104%
3,COc1c2occc2cc2ccc(=O)oc12 [Methoxsalen],100%
4,CO[C@@H]1[C@H](N(C)C(=O)c2ccccc2)C[C@H]2O[C@]1(C)n1c3ccccc3c3c4c(c5c6ccccc6n2c5c31)C(=O)NC4 [Midostaurin],103%
5,CO[C@@]12[C@H](COC(N)=O)C3=C(C(=O)C(C)=C(N)C3=O)N1C[C@@H]1N[C@@H]12 [Mitomycin C],104%
6,CC1(C)CCC(c2ccc(Cl)cc2)=C(CN2CCN(c3ccc(C(=O)NS(=O)(=O)c4ccc(N[C@H](CCN5CCOCC5)CSc5ccccc5)c(S(=O)(=O)C(F)(F)F)c4)cc3)CC2)C1 [Navitoclax],88.2%
7,Cc1cn(-c2cc(NC(=O)c3ccc(C)c(Nc4nccc(-c5cccnc5)n4)c3)cc(C(F)(F)F)c2)cn1 [Nilotinib],93.2% and 92.5%
8,C=CCN(/C=C1/C(=O)O[C@H](COC)[C@@]2(C)C1=C(O)C(=O)C1=C2[C@H](OC(C)=O)C[C@]2(C)C(=O)CC[C@@H]12)CC=C [PX-866],104%
9,CC[C@H](CO)Nc1nc(NCc2ccccc2)c2ncn(C(C)C)c2n1 [Roscovitine],101%
10,O=C(CCCCCCC(=O)Nc1ccccc1)NO [Vorinostat],109% and 96.3%

# Tested on: CAL-148
# Test: as above
# Conditions: 1 nM; incubation time: 72 h
# Description: as §1
row,SMILES,normalised viability [%]
1,CCNC(=O)c1noc(-c2cc(C(C)C)c(O)cc2O)c1-c1ccc(CN2CCOCC2)cc1 [NVP-AUY922],103

# Same assay, conditions: 10 nM; incubation time: 72 h
row,SMILES,normalised viability
1,C=CCn1c(=O)c2cnc(Nc3ccc(N4CCN(C)CC4)cc3)nc2n1-c1cccc(C(C)(C)O)n1 [MK1775],87.4%
2,CN(Cc1cnc2nc(N)nc(N)c2n1)c1ccc(C(=O)N[C@@H](CCC(=O)O)C(=O)O)cc1 [Methotrexate],105%
3,COc1c2occc2cc2ccc(=O)oc12 [Methoxsalen],99.5%
4,CO[C@@H]1[C@H](N(C)C(=O)c2ccccc2)C[C@H]2O[C@]1(C)n1c3ccccc3c3c4c(c5c6ccccc6n2c5c31)C(=O)NC4 [Midostaurin],107%
5,CO[C@@]12[C@H](COC(N)=O)C3=C(C(=O)C(C)=C(N)C3=O)N1C[C@@H]1N[C@@H]12 [Mitomycin C],101%
6,CC1(C)CCC(c2ccc(Cl)cc2)=C(CN2CCN(c3ccc(C(=O)NS(=O)(=O)c4ccc(N[C@H](CCN5CCOCC5)CSc5ccccc5)c(S(=O)(=O)C(F)(F)F)c4)cc3)CC2)C1 [Navitoclax],87%
7,Cc1cn(-c2cc(NC(=O)c3ccc(C)c(Nc4nccc(-c5cccnc5)n4)c3)cc(C(F)(F)F)c2)cn1 [Nilotinib],89.9% and 90.2%
8,C=CCN(/C=C1/C(=O)O[C@H](COC)[C@@]2(C)C1=C(O)C(=O)C1=C2[C@H](OC(C)=O)C[C@]2(C)C(=O)CC[C@@H]12)CC=C [PX-866],100%
9,CC[C@H](CO)Nc1nc(NCc2ccccc2)c2ncn(C(C)C)c2n1 [Roscovitine],88.8%
10,O=C(CCCCCCC(=O)Nc1ccccc1)NO [Vorinostat],88.3% and 92.3%

# Tested on: Hs578T
# Test: as above
# Conditions: 10 nM; incubation time: 72 h
# Description: as §1
row,SMILES,normalised viability [%]
1,CCNC(=O)c1noc(-c2cc(C(C)C)c(O)cc2O)c1-c1ccc(CN2CCOCC2)cc1 [NVP-AUY922],37.3

# Same assay, conditions: 100 nM; incubation time: 72 h
row,SMILES,normalised viability
1,C=CCn1c(=O)c2cnc(Nc3ccc(N4CCN(C)CC4)cc3)nc2n1-c1cccc(C(C)(C)O)n1 [MK1775],83.2%
2,CN(Cc1cnc2nc(N)nc(N)c2n1)c1ccc(C(=O)N[C@@H](CCC(=O)O)C(=O)O)cc1 [Methotrexate],78.6%
3,COc1c2occc2cc2ccc(=O)oc12 [Methoxsalen],102%
4,CO[C@@H]1[C@H](N(C)C(=O)c2ccccc2)C[C@H]2O[C@]1(C)n1c3ccccc3c3c4c(c5c6ccccc6n2c5c31)C(=O)NC4 [Midostaurin],82.2%
5,CO[C@@]12[C@H](COC(N)=O)C3=C(C(=O)C(C)=C(N)C3=O)N1C[C@@H]1N[C@@H]12 [Mitomycin C],97.1%
6,CC1(C)CCC(c2ccc(Cl)cc2)=C(CN2CCN(c3ccc(C(=O)NS(=O)(=O)c4ccc(N[C@H](CCN5CCOCC5)CSc5ccccc5)c(S(=O)(=O)C(F)(F)F)c4)cc3)CC2)C1 [Navitoclax],78.2%
7,Cc1cn(-c2cc(NC(=O)c3ccc(C)c(Nc4nccc(-c5cccnc5)n4)c3)cc(C(F)(F)F)c2)cn1 [Nilotinib],78.3% and 89.4%
